Data: ChEMBL document CHEMBL4818994, “Uncompetitive nanomolar dimeric indenoindole inhibitors of the human breast cancer resistance pump ABCG2” (Eur J Med Chem, 2021)

What was measured:
[1] = target: T1, Broad substrate specificity ATP-binding cassette transporter ABCG2 (Homo sapiens, UniProt Q9UNQ0); test: Inhibition of human ABCG2 transfected in human HEK293 cells assessed as inhibition of mitoxantrone efflux measured after 30 mins by FACS Calibur cytometric analysis; format: cell-based
T1 sequence (Q9UNQ0 whole entry): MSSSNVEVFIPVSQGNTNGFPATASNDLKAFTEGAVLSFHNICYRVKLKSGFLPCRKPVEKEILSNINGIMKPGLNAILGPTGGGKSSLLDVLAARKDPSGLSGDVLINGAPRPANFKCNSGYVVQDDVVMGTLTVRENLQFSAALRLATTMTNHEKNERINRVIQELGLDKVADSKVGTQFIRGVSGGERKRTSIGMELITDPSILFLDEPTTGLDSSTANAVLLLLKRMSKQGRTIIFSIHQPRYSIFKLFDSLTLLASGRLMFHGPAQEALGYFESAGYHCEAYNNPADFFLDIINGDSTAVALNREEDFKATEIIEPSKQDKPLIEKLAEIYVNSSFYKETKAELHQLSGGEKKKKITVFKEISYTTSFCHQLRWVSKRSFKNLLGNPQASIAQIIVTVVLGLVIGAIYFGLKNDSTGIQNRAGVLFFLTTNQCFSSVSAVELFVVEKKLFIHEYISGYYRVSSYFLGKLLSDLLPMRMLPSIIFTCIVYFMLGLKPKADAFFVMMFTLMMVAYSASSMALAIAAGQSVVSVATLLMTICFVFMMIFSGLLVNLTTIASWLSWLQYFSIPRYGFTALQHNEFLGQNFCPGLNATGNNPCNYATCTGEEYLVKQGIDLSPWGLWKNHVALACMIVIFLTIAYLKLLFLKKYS

[2] = Growth inhibition of human HEK293 cells overexpressing human ABCG2 after 72 hrs by MTT assay; format: ADME, cell-based; settings: read-out: IG50
ABCG2 [3] = test: Therapeutic ratio of IG50 for growth inhibition of human HEK293 cells to IC50 for inhibition of human ABCG2 expressed in human HEK293 cells; format: toxicity, cell-based
[4] = target: T2, ATP-dependent translocase ABCB1 (Homo sapiens, UniProt P08183); test: Inhibition of human P-gp1 transfected in mouse NIH3T3 cells assessed as inhibition of Calcein-AM efflux measured after 30 mins by FACS Calibur cytometric analysis; format: cell-based; settings: nih3t3, 0.5 h
T2 sequence (P08183 whole entry): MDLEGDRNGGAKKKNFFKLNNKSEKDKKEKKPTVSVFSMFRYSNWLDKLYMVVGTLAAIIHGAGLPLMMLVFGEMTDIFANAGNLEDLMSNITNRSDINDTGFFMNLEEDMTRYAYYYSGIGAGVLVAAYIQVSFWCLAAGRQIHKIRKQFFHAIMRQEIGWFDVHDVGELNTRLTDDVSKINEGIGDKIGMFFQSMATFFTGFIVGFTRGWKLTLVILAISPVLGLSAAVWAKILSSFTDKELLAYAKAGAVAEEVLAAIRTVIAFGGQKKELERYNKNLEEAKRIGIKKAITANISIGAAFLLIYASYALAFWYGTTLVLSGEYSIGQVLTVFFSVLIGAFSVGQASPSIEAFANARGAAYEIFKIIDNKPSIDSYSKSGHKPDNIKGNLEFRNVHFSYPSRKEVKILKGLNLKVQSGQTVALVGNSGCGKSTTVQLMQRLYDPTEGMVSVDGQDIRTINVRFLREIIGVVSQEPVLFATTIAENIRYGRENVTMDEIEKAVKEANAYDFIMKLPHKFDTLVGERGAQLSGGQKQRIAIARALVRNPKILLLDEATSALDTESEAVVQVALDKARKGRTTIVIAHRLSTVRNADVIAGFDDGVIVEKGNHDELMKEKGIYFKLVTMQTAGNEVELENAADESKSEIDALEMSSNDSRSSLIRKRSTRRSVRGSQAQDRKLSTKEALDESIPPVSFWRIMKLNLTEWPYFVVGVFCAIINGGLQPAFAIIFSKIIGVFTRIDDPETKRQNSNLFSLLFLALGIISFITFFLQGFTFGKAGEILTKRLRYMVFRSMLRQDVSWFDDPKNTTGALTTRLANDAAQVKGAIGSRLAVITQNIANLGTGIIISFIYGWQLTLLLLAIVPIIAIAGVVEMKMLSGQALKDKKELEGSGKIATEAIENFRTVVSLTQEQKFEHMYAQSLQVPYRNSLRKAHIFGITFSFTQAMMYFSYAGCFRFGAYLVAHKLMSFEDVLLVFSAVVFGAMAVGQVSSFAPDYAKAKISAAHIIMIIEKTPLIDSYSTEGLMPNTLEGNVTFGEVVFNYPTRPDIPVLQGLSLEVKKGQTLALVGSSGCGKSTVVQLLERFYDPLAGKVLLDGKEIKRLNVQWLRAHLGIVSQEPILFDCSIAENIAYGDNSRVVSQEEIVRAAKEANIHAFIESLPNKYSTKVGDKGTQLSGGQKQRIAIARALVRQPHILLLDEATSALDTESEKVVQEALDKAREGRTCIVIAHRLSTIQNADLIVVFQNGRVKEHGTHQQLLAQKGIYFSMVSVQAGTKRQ

ABCG2 [5] = test: Therapeutic ratio of IG50 for growth inhibition of human HEK293 cells overexpressing human ABCG2 to IC50 for inhibition of human ABCG2 expressed in human HEK293 cells; format: toxicity, cell-based
[6] = Growth inhibition of human HEK293 cells after 72 hrs by MTT assay; format: cell-based; settings: read-out: IG50
[7] = target: Multidrug resistance-associated protein 1 (Homo sapiens, UniProt P33527); test: Inhibition of human MRP1 transfected in human HEK293 cells assessed as inhibition of Calcein-AM efflux measured after 30 mins by FACS Calibur cytometric analysis; format: cell-based; settings: hek293, 0.5 h
Chain of Multidrug resistance-associated protein 1 (P33527 whole entry): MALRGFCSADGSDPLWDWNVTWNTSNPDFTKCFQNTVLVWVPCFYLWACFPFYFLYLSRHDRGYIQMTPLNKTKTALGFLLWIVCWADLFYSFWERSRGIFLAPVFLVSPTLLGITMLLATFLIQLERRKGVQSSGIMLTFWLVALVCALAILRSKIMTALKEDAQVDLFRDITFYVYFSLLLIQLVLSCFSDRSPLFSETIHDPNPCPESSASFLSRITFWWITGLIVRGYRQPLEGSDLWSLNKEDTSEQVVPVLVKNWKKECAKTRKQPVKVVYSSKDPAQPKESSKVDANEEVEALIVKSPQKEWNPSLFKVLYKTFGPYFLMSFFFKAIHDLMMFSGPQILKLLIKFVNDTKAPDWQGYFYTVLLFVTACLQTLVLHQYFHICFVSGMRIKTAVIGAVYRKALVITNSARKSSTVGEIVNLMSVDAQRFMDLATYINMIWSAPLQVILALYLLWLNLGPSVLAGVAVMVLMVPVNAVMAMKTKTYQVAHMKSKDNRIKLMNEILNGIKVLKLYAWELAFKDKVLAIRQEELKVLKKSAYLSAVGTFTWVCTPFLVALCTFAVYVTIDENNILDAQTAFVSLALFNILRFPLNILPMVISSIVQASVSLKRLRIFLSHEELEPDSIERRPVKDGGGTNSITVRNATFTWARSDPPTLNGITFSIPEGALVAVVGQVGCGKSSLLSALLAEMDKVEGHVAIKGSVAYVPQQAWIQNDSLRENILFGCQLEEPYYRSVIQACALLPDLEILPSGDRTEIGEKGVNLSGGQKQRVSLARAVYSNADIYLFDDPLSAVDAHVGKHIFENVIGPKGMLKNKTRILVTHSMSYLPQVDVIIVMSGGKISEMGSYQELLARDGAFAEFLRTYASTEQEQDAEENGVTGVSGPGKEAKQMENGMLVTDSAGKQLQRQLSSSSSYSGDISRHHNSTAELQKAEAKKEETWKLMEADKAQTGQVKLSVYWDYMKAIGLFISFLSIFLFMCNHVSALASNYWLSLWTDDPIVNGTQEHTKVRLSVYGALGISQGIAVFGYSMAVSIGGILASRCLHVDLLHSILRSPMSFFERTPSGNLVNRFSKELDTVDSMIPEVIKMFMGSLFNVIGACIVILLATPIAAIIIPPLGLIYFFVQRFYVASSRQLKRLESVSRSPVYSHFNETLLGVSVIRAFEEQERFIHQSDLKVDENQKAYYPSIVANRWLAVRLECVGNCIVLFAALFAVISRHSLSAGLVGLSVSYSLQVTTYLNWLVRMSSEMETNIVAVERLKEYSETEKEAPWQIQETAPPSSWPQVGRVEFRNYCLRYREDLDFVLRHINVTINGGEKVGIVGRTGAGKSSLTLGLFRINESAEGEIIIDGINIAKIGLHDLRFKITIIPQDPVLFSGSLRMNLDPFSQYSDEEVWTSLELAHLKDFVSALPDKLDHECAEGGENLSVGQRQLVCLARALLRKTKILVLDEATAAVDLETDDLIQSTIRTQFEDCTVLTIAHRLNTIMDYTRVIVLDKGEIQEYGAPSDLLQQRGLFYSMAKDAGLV

[8] = target: T1, Broad substrate specificity ATP-binding cassette transporter ABCG2; test: Mixed inhibition of human ABCG2 transfected in human HEK293 cells assessed as Ki1 for inhibition of mitoxantrone efflux measured after 30 mins by FACS Calibur cytometric analysis; format: cell-based
[9] = target: T1, Broad substrate specificity ATP-binding cassette transporter ABCG2; test: Non-competitive inhibition of human ABCG2 transfected in human HEK293 cells assessed as Ki2 for inhibition of mitoxantrone efflux measured after 30 mins by FACS Calibur cytometric analysis; format: cell-based
[10] = target: T1, Broad substrate specificity ATP-binding cassette transporter ABCG2; test: Mixed inhibition of human ABCG2 transfected in human HEK293 cells assessed as Ki2 for inhibition of mitoxantrone efflux measured after 30 mins by FACS Calibur cytometric analysis; format: cell-based
[11] = target: T2, ATP-dependent translocase ABCB1; test: Inhibition of human P-gp1 transfected in mouse NIH3T3 cells assessed as inhibition of Rhodamine123 efflux measured after 30 mins by FACS Calibur cytometric analysis; format: cell-based; settings: nih3t3, 0.5 h
[12] = target: T1, Broad substrate specificity ATP-binding cassette transporter ABCG2; test: Uncompetitive inhibition of human ABCG2 transfected in human HEK293 cells assessed as Ki2 for inhibition of mitoxantrone efflux measured after 30 mins by FACS Calibur cytometric analysis; format: cell-based
[13] = target: T1, Broad substrate specificity ATP-binding cassette transporter ABCG2; test: Mixed inhibition of human ABCG2 transfected in human HEK293 cells assessed as Ki2 for inhibition of Hoechst33342 efflux measured after 30 mins by FACS Calibur cytometric analysis; format: cell-based
[14] = target: T1, Broad substrate specificity ATP-binding cassette transporter ABCG2; test: Mixed inhibition of human ABCG2 transfected in human HEK293 cells assessed as Ki1 for inhibition of Hoechst33342 efflux measured after 30 mins by FACS Calibur cytometric analysis; format: cell-based

| Compound | IC50 [1] | GI50 at 72 h [2] | selectivity ratio (ABCG2 [3]) | inhibition (INH) [4] | selectivity ratio (ABCG2 [5]) | GI50 at 72 h [6] | inhibition (INH) [7] | also measured |
| --- | --- | --- | --- | --- | --- | --- | --- | --- |
| COc1cccc(CCn2c3c(c4c(OCCCCCCCCCCCCOc5ccc6c(c5)-c5c(c7c(n5CCc5ccccc5)CC(C)CC7=O)C6=O)cccc42)C(=O)c2ccccc2-3)c1 (stereo unspecified) | > 10000 nM | – | – | – | – | – | – | – |
| CC1CC(=O)c2c3c(n(CCc4ccccc4)c2C1)-c1cc(OCCCCOc2ccc4c(c2)-c2c(c5c(n2CCc2ccccc2)CC(C)CC5=O)C4=O)ccc1C3=O (stereo unspecified) | 867 nM | 109000 nM | 126 | Not Active | 126 | 109000 nM | Not Active | – |
| COc1cccc(CCn2c3c(c4c(O)cccc42)C(=O)c2ccccc2-3)c1 | 732 nM | – | – | – | – | – | – | Ki [8]: 188 nM; Ki [9]: 250 nM; Ki [10]: 294 nM |
| COc1cccc(CCn2c3c(c4c(OCCCCCCCCCCOc5cccc6c5c5c(n6CCc6cccc(OC)c6)-c6ccccc6C5=O)cccc42)C(=O)c2ccccc2-3)c1 | > 10000 nM | – | – | – | – | – | – | – |
| CC1CC(=O)c2c3c(n(CCc4ccccc4)c2C1)-c1cc(OCCOc2ccc4c(c2)-c2c(c5c(n2CCc2ccccc2)CC(C)CC5=O)C4=O)ccc1C3=O (stereo unspecified) | 319 nM | 242000 nM | 758 | Not Active | 758 | 242000 nM | Not Active | – |
| CC1CC(=O)c2c3c(n(CCc4ccccc4)c2C1)-c1cc(OCCCCCCCCCCCCOc2ccc4c(c2)-c2c(c5c(n2CCc2ccccc2)CC(C)CC5=O)C4=O)ccc1C3=O (stereo unspecified) | > 10000 nM | – | – | – | – | – | – | – |
| COc1cccc(CCn2c3c(c4c(OCCCCCCCCOc5cccc6c5c5c(n6CCc6cccc(OC)c6)-c6ccccc6C5=O)cccc42)C(=O)c2ccccc2-3)c1 | > 10000 nM | – | – | – | – | – | – | – |
| COc1cccc(CCn2c3c(c4c(OCCCCCCOc5cccc6c5c5c(n6CCc6cccc(OC)c6)-c6ccccc6C5=O)cccc42)C(=O)c2ccccc2-3)c1 | 27.4 nM | – | ≥ 70000 | Not Active | ≥ 70000 | – | Not Active | – |
| COc1cccc(CCn2c3c(c4c(OCCOc5ccc6c(c5)-c5c(c7c(n5CCc5ccccc5)CC(C)CC7=O)C6=O)cccc42)C(=O)c2ccccc2-3)c1 (stereo unspecified) | 68 nM | 221000 nM | 3250 | – | 3250 | 221000 nM | – | inhibition (INH) [11]: Active |
| COc1cccc(CCn2c3c(c4c(OCCOc5cccc6c5c5c(n6CCc6cccc(OC)c6)-c6ccccc6C5=O)cccc42)C(=O)c2ccccc2-3)c1 | 38.4 nM | > 100000 nM | ≥ 2630 | Not Active | – | 917000 nM | Not Active | – |
| COc1cccc(CCn2c3c(c4c(OCCCCOc5ccc6c(c5)-c5c(c7c(n5CCc5ccccc5)CC(C)CC7=O)C6=O)cccc42)C(=O)c2ccccc2-3)c1 (stereo unspecified) | 133 nM | 295000 nM | 2230 | Not Active | 2230 | 295000 nM | Not Active | – |
| CC1CC(=O)c2c3c(n(CCc4ccccc4)c2C1)-c1cc(OCCCCCCOc2ccc4c(c2)-c2c(c5c(n2CCc2ccccc2)CC(C)CC5=O)C4=O)ccc1C3=O (stereo unspecified) | > 10000 nM | – | – | – | – | – | – | – |
| COc1cccc(CCn2c3c(c4c(OCCCCCCCCOc5ccc6c(c5)-c5c(c7c(n5CCc5ccccc5)CC(C)CC7=O)C6=O)cccc42)C(=O)c2ccccc2-3)c1 (stereo unspecified) | 389 nM | > 20000 nM | > 52 | Not Active | > 52 | > 20000 nM | Not Active | – |
| COc1cccc(CCn2c3c(c4c(OCCCCCCCCCCOc5ccc6c(c5)-c5c(c7c(n5CCc5ccccc5)CC(C)CC7=O)C6=O)cccc42)C(=O)c2ccccc2-3)c1 (stereo unspecified) | > 10000 nM | – | – | – | – | – | – | – |
| CC1CC(=O)c2c3c(n(CCc4ccccc4)c2C1)-c1ccccc1C3=O (stereo unspecified) | 768 nM | – | – | – | – | – | – | Ki [8]: 323 nM; Ki [10]: 843 nM |
| COc1cccc(CCn2c3c(c4c(OCCCCCCCCCCCCOc5cccc6c5c5c(n6CCc6cccc(OC)c6)-c6ccccc6C5=O)cccc42)C(=O)c2ccccc2-3)c1 | > 10000 nM | – | – | – | – | – | – | – |
| COc1cccc(CCn2c3c(c4c(OCCCCCCOc5ccc6c(c5)-c5c(c7c(n5CCc5ccccc5)CC(C)CC7=O)C6=O)cccc42)C(=O)c2ccccc2-3)c1 (stereo unspecified) | 32.6 nM | > 100000 nM | > 3070 | Not Active | > 3070 | > 100000 nM | Not Active | Ki [8]: 192 nM; Ki [12]: 38 nM; Ki [10]: 42 nM |
| CC1CC(=O)c2c3c(n(CCc4ccccc4)c2C1)-c1cc(OCCCCCCCCOc2ccc4c(c2)-c2c(c5c(n2CCc2ccccc2)CC(C)CC5=O)C4=O)ccc1C3=O (stereo unspecified) | > 10000 nM | – | – | – | – | – | – | – |
| CC1CC(=O)c2c3c(n(CCc4ccccc4)c2C1)-c1cc(OCCCCCCCCCCOc2ccc4c(c2)-c2c(c5c(n2CCc2ccccc2)CC(C)CC5=O)C4=O)ccc1C3=O (stereo unspecified) | > 10000 nM | – | – | – | – | – | – | – |
| COc1cccc(CCn2c3c(c4c(OCCCCOc5cccc6c5c5c(n6CCc6cccc(OC)c6)-c6ccccc6C5=O)cccc42)C(=O)c2ccccc2-3)c1 | 24.1 nM | 51800 nM | 3300 | Not Active | 2160 | 79600 nM | Not Active | Ki [12]: 17 nM; Ki [13]: 29 nM; Ki [14]: 113 nM |
